Results from article PMC11079024, “Identification of a family of species-selective complex I inhibitors as potential anthelmintics” (Nature Communications, 2024).
Several values for one entry are separate records, joined by “and”; a condition that tells them apart may be missing. Equal entries are not always repeated. Where two headings read alike, the source gives them in different places.

Test system: HEK293 cells
Details: individual replicate (Rep)

Question: With Cc1cc(O)c2c(c1)O[C@@]1(C)CC[C@H]3C(C)(C)CCC[C@]34CO[C@@H]2[C@H]41 [Siccanin] as the molecule, how does the HEK293 viability (dose 0.4 µM) read?
Answer: The HEK293 viability was 0.916.

Question: What about the HEK293 viability (dose 0.8 µM) of the same molecule?
Answer: Its HEK293 viability is 0.884.

Question: And the HEK293 viability (dose 3.1 µM)?
Answer: Its HEK293 viability is 0.838 and 0.744.

Question: What about the HEK293 viability (dose 6.3 µM) of the same molecule?
Answer: Its HEK293 viability is 0.943 and 0.986.

Question: What about the HEK293 viability (dose 12.5 µM) of the same molecule?
Answer: Its HEK293 viability is 0.861 and 0.895 and 0.672.

Question: What about the HEK293 viability (dose 25 µM) of the same molecule?
Answer: Its HEK293 viability is 0.599 and 0.475 and 0.289.

Question: What about the HEK293 viability (dose 50 µM) of the same molecule?
Answer: The HEK293 viability was 0.058 and 0.057.
